ChEMBL document CHEMBL1152381, “Investigation of aminopyridiopyrazinones as PDE5 inhibitors: Evaluation of modifications to the central ring system” (Bioorg Med Chem Lett, 2009)
pIC50: −log10 of the molar value. Values after ≈ are worked out from the molar mass of the structure shown.

Experiments:
[1] = Inhibition of PDE11
[2] = Inhibition of PDE6
hERG (KCNH2) = hERG (KCNH2) (Homo sapiens, UniProt Q12809); assay: Displacement of dofetilide from human ERG at 10 uM; settings: probe dofetilide
[3] = target: cGMP-specific 3',5'-cyclic phosphodiesterase (Homo sapiens, UniProt O76074); assay: Inhibition of PDE5
[4] = Aqueous solubility at pH 7.4; assay type: physicochemical
[5] = Metabolic stability in human liver microsomes assessed as compound remaining after 30 mins; assay type: ADME, Microsome; settings: read-out: Stability
[6] = Clearance in Sprague-Dawley rat at 2 mg/kg, iv and 2 mg/kg, po; assay type: ADME, organism-based; settings: in vivo
[7] = Volume of distribution in Sprague-Dawley rat at 2 mg/kg, iv and 2 mg/kg, po; assay type: ADME, organism-based; settings: in vivo
[8] = Half life in Sprague-Dawley rat at 2 mg/kg, iv and 2 mg/kg, po; assay type: ADME, organism-based; settings: in vivo
Rattus norvegicus = assay: Antihypertensive activity in SHR rat assessed as reduction in systemic arterial blood pressure at 1.5 mg/kg, ip administered as single bolus dose measured for > 3 hrs; assay type: functional, Artery; settings: route intraperitoneal
[9] = target: Voltage-gated inwardly rectifying potassium channel KCNH2 (Homo sapiens, UniProt Q12809); assay: Inhibition of human ERG by patch-clamp electrophysiology assay
[10] = Plasma protein binding in Sprague-Dawley rat at 2 mg/kg, iv and 2 mg/kg, po; assay type: ADME, organism-based; settings: read-out: PPB (converted)
[11] = Metabolic stability in human hepatocytes assessed as compound remaining after 30 mins; assay type: ADME, cell-based, Hepatocyte; settings: read-out: Stability
[12] = Bioavailability in Sprague-Dawley rat at 2 mg/kg, iv and 2 mg/kg, po; assay type: ADME, organism-based; settings: in vivo
[13] = Selectivity ratio of IC50 for PDE11 to IC50 for PDE5
[14] = Selectivity ratio of IC50 for PDE6 to IC50 for PDE5

hERG (KCNH2), sequence (Q12809 whole entry): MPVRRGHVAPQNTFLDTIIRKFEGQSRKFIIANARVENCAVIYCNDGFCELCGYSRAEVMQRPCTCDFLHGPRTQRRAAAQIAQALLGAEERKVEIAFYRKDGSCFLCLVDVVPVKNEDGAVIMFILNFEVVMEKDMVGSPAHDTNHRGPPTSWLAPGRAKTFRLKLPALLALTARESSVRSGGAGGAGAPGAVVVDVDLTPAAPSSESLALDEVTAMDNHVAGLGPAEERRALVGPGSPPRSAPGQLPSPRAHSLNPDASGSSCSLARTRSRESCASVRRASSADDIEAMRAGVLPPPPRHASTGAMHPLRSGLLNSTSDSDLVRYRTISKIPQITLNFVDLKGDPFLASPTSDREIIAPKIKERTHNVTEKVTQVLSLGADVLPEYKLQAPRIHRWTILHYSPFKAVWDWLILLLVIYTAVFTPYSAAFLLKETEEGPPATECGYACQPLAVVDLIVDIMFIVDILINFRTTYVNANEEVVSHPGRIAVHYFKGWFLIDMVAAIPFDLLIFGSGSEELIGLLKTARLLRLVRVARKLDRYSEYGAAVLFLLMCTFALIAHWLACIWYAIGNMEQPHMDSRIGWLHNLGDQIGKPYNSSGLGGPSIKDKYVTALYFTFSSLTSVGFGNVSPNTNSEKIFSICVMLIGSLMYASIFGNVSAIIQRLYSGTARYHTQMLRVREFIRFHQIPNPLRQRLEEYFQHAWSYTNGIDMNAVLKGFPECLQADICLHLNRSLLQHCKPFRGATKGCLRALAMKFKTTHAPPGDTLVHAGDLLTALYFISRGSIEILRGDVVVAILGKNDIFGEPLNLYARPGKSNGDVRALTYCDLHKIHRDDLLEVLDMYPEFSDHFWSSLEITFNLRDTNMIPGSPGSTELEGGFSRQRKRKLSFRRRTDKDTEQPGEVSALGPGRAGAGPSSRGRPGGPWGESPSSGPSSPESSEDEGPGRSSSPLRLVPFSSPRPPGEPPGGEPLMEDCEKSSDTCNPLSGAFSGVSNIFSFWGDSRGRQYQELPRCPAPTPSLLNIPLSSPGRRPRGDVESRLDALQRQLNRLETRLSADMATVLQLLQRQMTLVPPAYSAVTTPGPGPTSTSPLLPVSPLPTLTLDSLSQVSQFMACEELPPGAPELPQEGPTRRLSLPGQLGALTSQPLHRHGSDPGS
Voltage-gated inwardly rectifying potassium channel KCNH2, sequence (Q12809 whole entry): as above

Row | Compound | pIC50 [1] | pIC50 [2] | pIC50 [3] | solubility [4] | remaining at 0.5 h [5] | clearance [6] | Vd [7] | half-life [8] | fraction unbound [10] | remaining at 0.5 h [11] | bioavailability [12] | Ratio IC50 [13] | Ratio IC50 [14] | inhibition at 10 µM (hERG (KCNH2)) | Activity (Rattus norvegicus) | inhibition (INH) [9]
1 | CCCOCCn1c(=O)c(NCCN2CCOCC2)nc2ccc(-c3ccc(OC)nc3)cc21 | < 5.70 | 6.75 | 9.05 |  |  |  |  |  |  | 20% |  |  |  | 43% |  | 
2 | CCCOCCn1c(=O)c(NCCN2CCOCC2)nc2ccc(-c3ccc(OC)nc3)nc21 | 5.81 | 6.47 |  | 4.6 µM (≈ 2.16 µg/mL) | 10% | 67.6 mL/min/kg | 8 L/kg | 3.1 h | 0.104 |  | 23% |  |  | 14% |  | 
3 | CCCOCCn1c(=O)c(NCCN2CCOCC2)nc2ncc(-c3ccc(OC)nc3)nc21 | 5.45 | 6.53 | 8.92 |  | 12% | 151 mL/min/kg | 5.2 L/kg | 0.6 h | 0.088 |  |  | 335 | < 30 | 11% |  | 

These reach a higher pIC50 [1]. Values come first.

Row | pIC50 [1] | pIC50 [2] | pIC50 [3] | solubility [4] | remaining at 0.5 h [5] | clearance [6] | Vd [7] | half-life [8] | fraction unbound [10] | remaining at 0.5 h [11] | bioavailability [12] | Ratio IC50 [13] | Ratio IC50 [14] | Compound | inhibition at 10 µM (hERG (KCNH2)) | Activity (Rattus norvegicus) | inhibition (INH) [9]
4 | 5.83 | 7.08 | 8.92 | 4.6 µM (≈ 2.16 µg/mL) | 22% |  |  |  |  |  |  |  |  | CCCOCCn1c(=O)c(NCCN2CCOCC2)nc2cnc(-c3ccc(OC)nc3)nc21 | 15% |  | 
5 | 5.86 | 7.21 | 9.47 | 46 µM (≈ 21.6 µg/mL) | 18% | 178 mL/min/kg | 18.8 L/kg | 3.4 h | 0.235 |  |  |  |  | CCCOCCn1c(=O)c(NCCN2CCOCC2)nc2ncc(-c3ccc(OC)nc3)cc21 | 34% | 25 mmHg | 34%
6 | 6.46 | 7.95 | 10.15 | 18 µM (≈ 8.43 µg/mL) | 38% | 33.6 mL/min/kg | 1.6 L/kg | 3.2 h | 0.5 |  | 21% |  |  | CCCOCCn1c(=O)c(NCCN2CCOCC2)nc2cnc(-c3ccc(OC)nc3)cc21 | 23% |  | 
